In patent publication US8969407B2, “Administration of coumarin, butylated hydroxyanisole and ethoxyquine for the treatment of canities” (L'Oreal, priority 2006, dated 2015):

Tested on: normal human melanocytes (NHM)
Assay: Measurement of reactive oxygen species (ROS) generated by an H2O2 stress in cultured normal human melanocytes
Assay type: cell-based
Conditions: NHM pretreated 12 h/18 h at 37° C. with compound; 250 μM H2O2; fluorescence after 15 minutes; FIG. 1
Method: 1-A-1. Protocol for Measuring the Reactive Oxygen Species (ROS) Generated by an H2O2 Stress in Cultured Normal Human Melanocytes (NHM): The normal human melanocytes (NHMs) were inoculated at DO at the density of 4×10^4 cells/cm^2. At D1, the culture medium was replaced with the 10 μM solution of 6-carboxy-2',7'-dichlorodihydrofluorescein diacetate, di[acetoxymethyl ester] in PBS (H2DCFDA, C2938, Molecular Probes). After 20 minutes, the H2DCFDA solution was replaced with the culture medium. The NHMs were left for 30 minutes before adding the H2O2 solution (250 μM). The fluorescence was measured after 15 minutes in a fluoroscan (excitation: 485 nm, emission: 538 nm). The compounds studied were used depending on their properties (concentration, preincubation time). N-Acetylcysteine ([…]-Sigma) was used as a reference molecule. The melanocytes were pretreated, 12 h/18 h at 37° C., with the compound studied in the culture medium, before being brought into contact for 20 minutes with H2DCFDA (10 μM in PBS). […] The fluorescence was measured after 15 minutes in a fluoroscan (excitation: 485 nm, emission: 538 nm). The results represent the crude fluorescence data, from which the autofluorescence values of “blank” cells, expressed in fluorescence units (fu), obtained during a representative experiment, have been deducted.

Structure (SMILES): CCOc1ccc2c(c1)C(C)=CC(C)(C)N2 [ethoxyquine, 6-ethoxy-2,2,4-trimethyl-1H-quinoline]
- ROS induced by H2O2 (H2DCFDA fluorescence): decrease of the reactive oxygen species
